This is an account of results in patent publication US20200361871A1 (Enterprise Therapeutics Ltd., priority 2018, published 2020).

For the assay, the target named is human TMEM16A (TMEM16Aabc variant) (Homo sapiens, UniProt Q5XXA6, DEL476-501, form not given). Briefly: Automated whole-cell patch clamp (Qpatch) TMEM16A potentiator assay in FRT cells stably expressing human TMEM16A. Type of assay: cell-based. The settings on record: for % Potentiation @ 3.33 μM Avg: 3.33 μM solution of test compound, percentage increase of baseline TMEM16A current; for EC50: calculated EC50, Qpatch TMEM16A current at +70 mV. In short, it runs like this: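 FRT cells stably expressing human TMEM16Aabc were recorded by automated whole-cell patch clamp, with intracellular Ca2+ buffered for ~EC20 activation, holding −70 mV and step to +70 mV at 0.05 Hz. Compound was applied cumulatively, 5 min per concentration. Peak current increase as % of baseline was fitted to give EC50 and maximum efficacy.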
Chain of human TMEM16A (TMEM16Aabc variant) (Q5XXA6 with tags, fused parts or gaps DEL476-501): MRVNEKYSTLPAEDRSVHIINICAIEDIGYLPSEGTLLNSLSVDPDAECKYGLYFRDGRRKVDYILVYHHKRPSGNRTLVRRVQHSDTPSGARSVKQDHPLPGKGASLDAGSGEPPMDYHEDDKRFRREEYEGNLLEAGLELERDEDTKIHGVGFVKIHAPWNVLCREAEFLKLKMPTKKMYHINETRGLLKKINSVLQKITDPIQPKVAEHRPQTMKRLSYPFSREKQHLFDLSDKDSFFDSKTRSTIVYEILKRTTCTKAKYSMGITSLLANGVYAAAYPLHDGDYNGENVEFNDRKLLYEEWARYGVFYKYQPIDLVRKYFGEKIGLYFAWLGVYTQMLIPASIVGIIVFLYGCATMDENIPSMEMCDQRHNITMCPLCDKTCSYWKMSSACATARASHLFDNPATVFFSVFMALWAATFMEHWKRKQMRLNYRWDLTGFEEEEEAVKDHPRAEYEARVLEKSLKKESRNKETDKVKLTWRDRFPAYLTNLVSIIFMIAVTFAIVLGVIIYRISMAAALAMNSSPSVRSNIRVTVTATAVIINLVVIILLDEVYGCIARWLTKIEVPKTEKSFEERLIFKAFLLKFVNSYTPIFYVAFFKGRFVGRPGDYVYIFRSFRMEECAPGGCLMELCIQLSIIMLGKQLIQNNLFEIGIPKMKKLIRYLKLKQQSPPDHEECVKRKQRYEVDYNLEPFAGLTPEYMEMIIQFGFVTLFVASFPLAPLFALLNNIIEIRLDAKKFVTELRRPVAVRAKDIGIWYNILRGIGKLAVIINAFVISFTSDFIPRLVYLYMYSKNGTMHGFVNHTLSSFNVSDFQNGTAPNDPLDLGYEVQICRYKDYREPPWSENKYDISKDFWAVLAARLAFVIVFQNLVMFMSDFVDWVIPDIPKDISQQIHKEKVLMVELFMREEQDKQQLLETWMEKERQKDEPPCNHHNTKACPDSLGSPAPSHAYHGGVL

For `CC(C)(C)NC(=O)c1cc(NC(=O)Cc2cccc(CC#N)c2)ccn1` [Example 68, N-tert-Butyl-4-[[2-[3-(cyanomethyl)phenyl]acetyl]amino]pyridine-2-carboxamide], the “% Potentiation @ 3.33 μM Avg” value is on record as 39%.
As to `COCc1cccc(CC(=O)Nc2ccnc(C(=O)NC(C)(C)C)c2)c1` [Example 69, N-tert-Butyl-4-[[2-[3-(methoxymethyl)phenyl]acetyl]amino]pyridine-2-carboxamide], the “% Potentiation @ 3.33 μM Avg” value stood at 47%.
Take `CC(C)(C)NC(=O)c1cc(NC(=O)Cc2cc(CN3CCOCC3)ccc2O)ccn1` [Example 70, N-tert-Butyl-4-[[2-[2-hydroxy-5-(morpholinomethyl)phenyl]acetyl]amino]pyridine-2-carboxamide]: the “% Potentiation @ 3.33 μM Avg” value came out at 138%.
Still for that read-out and setting: then `N#CC1(NC(=O)c2cccc(NC(=O)Cc3cc(Cl)ccc3O)c2)CCOC1` (stereo not drawn) [Example 71, 3-[[2-(5-Chloro-2-hydroxy-phenyl)acetyl]amino]-N-(3-cyanotetrahydrofuran-3-yl)benzamide], with 162%.
As for `CC1(NC(=O)c2cccc(NC(=O)Cc3cc(Cl)ccc3O)c2)CCCCC1` [Example 71.1, 3-[[2-(5-Chloro-2-hydroxy-phenyl)acetyl]amino]-N-(1-methylcyclohexyl)benzamide], the “% Potentiation @ 3.33 μM Avg” value was 256% and the concentration giving a half-maximal response (EC50) is 250 nM.
With `O=C(Cc1cc(F)ccc1O)Nc1ccnc(C(=O)NC2(CO)CCOC2)c1` (stereo not drawn) [Example 72, 4-[[2-(5-Fluoro-2-hydroxy-phenyl)acetyl]amino]-N-[3-(hydroxymethyl)tetrahydrofuran-3-yl]pyridine-2-carboxamide], the “% Potentiation @ 3.33 μM Avg” value was found to be 53%.
As to `COCC(C)(CO)NC(=O)c1cc(NC(=O)Cc2cc(Cl)ccc2O)ccn1` (stereo not drawn) [Example 73, 4-[[2-(5-Chloro-2-hydroxy-phenyl)acetyl]amino]-N-[1-(hydroxymethyl)-2-methoxy-1-methyl-ethyl]pyridine-2-carboxamide], the “% Potentiation @ 3.33 μM Avg” value was determined as 196% and the 50% effective concentration (EC50) is 310 nM.
In the same order, the values of `CC#CC(C)(C)NC(=O)c1cc(NC(=O)Cc2cc(Cl)ccc2O)ccn1` [Example 73.1, 4-[[2-(5-Chloro-2-hydroxy-phenyl)acetyl]amino]-N-(1,1-dimethylbut-2-ynyl) pyridine-2-carboxamide] are 389% and 280 nM.
In the same order, the values of `C#CC(C)(C)NC(=O)c1cccc(NC(=O)Cc2cc(Cl)ccc2O)c1` [Example 74, 3-[[2-(5-Chloro-2-hydroxy-phenyl)acetyl]amino]-N-(1,1-dimethylprop-2-ynyl)benzamide] are 337% and 180 nM.
As to `O=C(Cc1cc(Cl)ccc1O)Nc1cccc(C(=O)NC2(CO)CCOC2)c1` (stereo not drawn) [Example 74.1, 3-[[2-(5-Chloro-2-hydroxy-phenyl)acetyl]amino]-N-[3-(hydroxymethyl)tetra hydrofuran-3-yl]benzamide], the “% Potentiation @ 3.33 μM Avg” value is recorded as 49%.
Regarding `CC(C)(C)NC(=O)c1cc(NC(=O)Cc2cc(CCCO)ccc2O)ccn1` [Example 75, N-tert-Butyl-4-[[2-[2-hydroxy-5-(3-hydroxypropyl)phenyl]acetyl]amino]pyridine-2-carboxamide], the “% Potentiation @ 3.33 μM Avg” value was 34%.
Consider `CC1(NC(=O)c2cc(NC(=O)Cc3cc(Cl)c(F)cc3O)ccn2)CCC1` [Example 76, 4-[[2-(5-Chloro-4-fluoro-2-hydroxy-phenyl)acetyl]amino]-N-(1-methylcyclobutyl)pyridine-2-carboxamide], for which the “% Potentiation @ 3.33 μM Avg” value worked out at 366% and the concentration giving a half-maximal response (EC50) is 220 nM.
Consider `C#CC(C)(C)NC(=O)c1cc(NC(=O)Cc2cc(F)ccc2F)ccn1` [Example 77, 4-[[2-(2,5-Difluorophenyl)acetyl]amino]-N-(1,1-dimethylprop-2-ynyl)pyridine-2-carboxamide], for which the “% Potentiation @ 3.33 μM Avg” value was determined as 139% and the concentration giving a half-maximal response (EC50) is 410 nM.
As to `O=C(Cc1cc(F)ccc1F)Nc1ccnc(C(=O)NC23CCC(F)(C2)C3)c1` [Example 77.1, 4-[[2-(2,5-Difluorophenyl)acetyl]amino]-N-(4-fluoro-1-bicyclo[2.1.1]hexanyl) pyridine-2-carboxamide], the “% Potentiation @ 3.33 μM Avg” value stood at 151% and the concentration giving a half-maximal response (EC50) was 540 nM.
In the case of `C#CC(C)(C)NC(=O)c1cc(NC(=O)Cc2ccc(Cl)cc2O)ccn1` [Example 78, 4-[[2-(4-Chloro-2-hydroxy-phenyl)acetyl]amino]-N-(1,1-dimethylprop-2-ynyl)pyridine-2-carboxamide], the “% Potentiation @ 3.33 μM Avg” value is listed as 98% and the concentration for a half-maximal effect (EC50) is 20 nM.
In the case of `C#CC(C)(C)NC(=O)c1cc(NC(=O)Cc2ccc(C(F)(F)F)cc2O)ccn1` [Example 78.1, N-(1,1-Dimethylprop-2-ynyl)-4-[[2-[2-hydroxy-4-(trifluoromethyl)phenyl]acetyl]amino]pyridine-2-carboxamide], the “% Potentiation @ 3.33 μM Avg” value was 238% and the EC50 was 50 nM.
With `C#CC(C)(C)NC(=O)c1cc(NC(=O)Cc2cc(C(F)(F)F)ccc2O)ccn1` [Example 78.2, N-(1,1-Dimethylprop-2-ynyl)-4-[[2-[2-hydroxy-5-(trifluoromethyl)phenyl]acetyl]amino]pyridine-2-carboxamide], the “% Potentiation @ 3.33 μM Avg” value came out at 86% and the EC50 is 20 nM.
As to `C#CC(C)(C)NC(=O)c1cc(NC(=O)CC2CCOc3ccccc32)ccn1` (stereo not drawn) [Example 79, 4-[(2-Chroman-4-ylacetyl)amino]-N-(1,1-dimethylprop-2-ynyl)pyridine-2-carboxamide], the “% Potentiation @ 3.33 μM Avg” value is on record as 60%.
On the same count and under the same terms, then `C#CC(C)(C)NC(=O)c1cc(NC(=O)Cc2c(C)nn(C(C)C)c2C)ccn1` [Example 79.1, N-(1,1-Dimethylprop-2-ynyl)-4-[[2-(1-isopropyl-3,5-dimethyl-pyrazol-4-yl)acetyl]amino]pyridine-2-carboxamide], with 45%.
`C#CC(C)(C)NC(=O)c1cc(NC(=O)Cc2cccc3[nH]ncc23)ccn1` [Example 79.2, N-(1,1-Dimethylprop-2-ynyl)-4-[[2-(1H-indazol-4-yl)acetyl]amino]pyridine-2-carboxamide]: the “% Potentiation @ 3.33 μM Avg” value is 211%.
Take `C#CC(C)(C)NC(=O)c1cc(NC(=O)Cc2cccc3cc[nH]c23)ccn1` [Example 79.3, N-(1,1-Dimethylprop-2-ynyl)-4-[[2-(1H-indol-7-yl)acetyl]amino]pyridine-2-carboxamide]: the “% Potentiation @ 3.33 μM Avg” value turned out to be 64% and the 50% effective concentration (EC50) was 240 nM.
With `N#CC1(NC(=O)c2cccc(NC(=O)Cc3cc(Cl)ccc3O)c2)CCOCC1` [Example 80, 3-[[2-(5-Chloro-2-hydroxy-phenyl)acetyl]amino]-N-(4-cyanotetrahydropyran-4-yl) benzamide], the “% Potentiation @ 3.33 μM Avg” value is on record as 130%.
Consider `CC(C)(C#N)NC(=O)c1cc(NC(=O)Cc2cc(F)ccc2O)ccn1` [Example 81, N-(1-Cyano-1-methyl-ethyl)-4-[[2-(5-fluoro-2-hydroxy-phenyl)acetyl]amino] pyridine-2-carboxamide], for which the “% Potentiation @ 3.33 μM Avg” value came to 151% and the EC50 is 370 nM.
With `CC(C#N)(CO)NC(=O)c1cc(NC(=O)Cc2cc(F)ccc2O)ccn1` (stereo not drawn) [Example 81.1, N-(1-Cyano-2-hydroxy-1-methyl-ethyl)-4-[[2-(5-fluoro-2-hydroxy-phenyl)acetyl]amino] pyridine-2-carboxamide], the “% Potentiation @ 3.33 μM Avg” value is given as 108%.
For the compound `CC(C)NC(=O)c1cc(NC(=O)Cc2cc(F)ccc2O)ccn1` [Example 81.2, 4-[[2-(5-Fluoro-2-hydroxy-phenyl)acetyl]amino]-N-isopropyl-pyridine-2-carboxamide], the “% Potentiation @ 3.33 μM Avg” value amounted to 103% and the concentration giving a half-maximal response (EC50) was 420 nM.
In the same order, the values of `C#CC(C)(C)NC(=O)c1cc(NC(=O)Cc2cc(F)ccc2O)ccn1` [Example 81.3, N-(1,1-Dimethylprop-2-ynyl)-4-[[2-(5-fluoro-2-hydroxy-phenyl)acetyl]amino] pyridine-2-carboxamide] are 129% and 40 nM.
In the same order, the values of `O=C(Cc1cc(F)ccc1O)Nc1ccnc(C(=O)NC23CCC(F)(C2)C3)c1` [Example 81.4, N-(4-Fluoro-1-bicyclo[2.1.1]hexanyl)-4-[[2-(5-fluoro-2-hydroxy-phenyl)acetyl]amino] pyridine-2-carboxamide] are 122% and 40 nM.
For `O=C(Cc1cc(F)ccc1O)Nc1ccnc(C(=O)NC2(CO)CCC2)c1` [Example 81.5, 4-[[2-(5-Fluoro-2-hydroxy-phenyl)acetyl]amino]-N-[1-(hydroxymethyl)cyclobutyl] pyridine-2-carboxamide], the “% Potentiation @ 3.33 μM Avg” value was 74%.
For the compound `COc1ccc(Cl)cc1CC(=O)Nc1cc(C(=O)NC(C)(C)C)ncn1` [Example 82, N-tert-Butyl-6-[[2-(5-chloro-2-methoxy-phenyl)acetyl]amino]pyrimidine-4-carboxamide], the “% Potentiation @ 3.33 μM Avg” value was found to be 88% and the EC50 is 720 nM.
For the compound `CC(C)(C#N)NC(=O)c1cc(NC(=O)c2ccsc2)ccn1` [Example 83, N-(1-Cyano-1-methyl-ethyl)-4-(thiophene-3-carbonylamino)pyridine-2-carboxamide], the “% Potentiation @ 3.33 μM Avg” value was 6%.
Regarding `CC(C)(C#N)NC(=O)c1cc(NC(=O)CC2CCCCC2)ccn1` [Example 83.1, N-(1-Cyano-1-methyl-ethyl)-4-[(2-cyclohexylacetyl)amino]pyridine-2-carboxamide], the “% Potentiation @ 3.33 μM Avg” value was 159%.
Still for that read-out and setting: then `CC(C)(C#N)NC(=O)c1cc(NC(=O)C2CCCCC2)ccn1` [Example 83.2, N-(1-Cyano-1-methyl-ethyl)-4-(cyclohexanecarbonylamino)pyridine-2-carboxamide], with 41%.

As a reminder, the EC50 is the concentration needed to bring the measured effect to its halfway point.
